Assay results as given in US20050064383A1, “Methods and apparatus for producing gender enriched sperm” (priority 2000, published 2005).

Assays:
bull sperm [1] = assay: Staining of bull sperm with Hoechst dye at 24° C. in citrate or HEPES buffer, separation by flow cytometry; type: cell-based
Method: Bull sperm are collected at a collection facility, extended in citrate buffer pH 6.9 and sent at 18° C. by overnight express mail to a sorting facility. The sample is divided into two portions, centrifuged to separate sperm from supernatant, and each portion resuspended respectively in citrate buffer and HEPES buffer, both at pH 7.4. 0.1% BSA is present in the HEPES buffer.

bull sperm [2] = assay: Staining of bull sperm with Hoechst 33342 in TEST buffer, split index on Coulter Epics flow cytometer; type: cell-based
Method: Bull semen was collected from a sexually mature bull using an artificial vagina and the sample was diluted with citrate buffer (pH 7.0) at 1 part semen: 3 parts buffer. The sample was transferred to the flow cytometry laboratory at 18° C. The concentration of the sample is determined using a hemocytometer and the cells were diluted with an appropriate amount of TEST buffer (pH 7.35) to obtain 100 million sperm per mL. Ten microliters of a stock concentration (5 mg/ml in dH2O) of Hoechst 33342 was added to the sample of sperm and the cells were incubated at 25° C. for up to 4 hours. A second population of cells was handled in like manner but was incubated at 35° C. for 1 hour to serve as a positive control. A third population of cells was handled in like manner but the buffer pH is 7.2 instead of pH 7.35 to determine if buffer pH influences uptake of Hoechst 33342. At one-hour intervals for up to 4 hours, 200 μL micro aliquots were removed from the samples and evaluated using a Coulter Epics flow cytometer. The split index information was collected for each sample per treatment group. [table]

bull sperm [3] = assay: Sperm motility/viability after overnight incubation with HO dye; type: cell-based; settings: overnight incubation at 18, 20 or 22° C., 0 hours
Method: (§1) Bull sperm in citrate buffer at pH 6.9-7.0 is sent from collection facility to sorter facility by same-day delivery at 18° C. Upon receipt the sperm is divided into three portions and stored and stained overnight with Hoechst 33342 dye at 18° C., 20° C., or 22° C. (all in citrate buffer at pH 6.9).

bull sperm [4] = assay: Overnight low temperature staining of bull sperm with Hoechst 33342, separation into X- and Y-sperm by flow cytometry; type: cell-based; settings: citrate buffer pH 6.9
Method: as §1

[5] = Buffer solubility by HPLC; settings: maximum measurable 90 micromolar
Method: One microliter (μL) of the stock solution was then added to 110 μL of aqueous buffer solution placed in an HPLC (high performance liquid chromatography) vial and mixed by inverting a number of times. The samples were allowed to stand for 30 minutes and then centrifuged for 30 minutes. The centrifugation is required to deposit suspended material that could interfere with the analysis to the side of the vial. The solutions were then analyzed by HPLC by sampling the solution without touching the vial bottom or sides. Shown below are the measured quantities remaining in solution in the various buffers.

Structure (SMILES): CCOc1ccc(-c2nc3ccc(-c4nc5ccc(N6CCN(C)CC6)cc5[nH]4)cc3[nH]2)cc1 [Hoechst 33342]
- Sort results after 2.5 h incubation at room temperature (24° C.) (bull sperm [1]; Sperm in HEPES buffer, pH 7.4, 0.1% BSA): Sperm were separated into X and Y
- Sort results after 2.5 h incubation at room temperature (24° C.) (bull sperm [1]; Sperm in NaCitrate buffer, pH 7.4): No separation into X and Y
- 1 h Split index (bull sperm [2]; 25° C. in TEST pH 7.2): 0%
- 2 h split index (bull sperm [2]; 25° C. in TEST pH 7.2): 0%
- 3 h split index (bull sperm [2]; 25° C. in TEST pH 7.2): 0%
- 4 h split index (bull sperm [2]; 25° C. in TEST pH 7.2): 0%
- 1 h Split index (bull sperm [2]; 25° C. in TEST pH 7.35): 0%
- 2 h split index (bull sperm [2]; 25° C. in TEST pH 7.35): 0%
- 3 h split index (bull sperm [2]; 25° C. in TEST pH 7.35): 10%
- 4 h split index (bull sperm [2]; 25° C. in TEST pH 7.35): 30%
- 1 h Split index (bull sperm [2]; 35° C. control (positive control), 1 hour): 30%
- effect of prolonged exposure to dye medium on sperm viability (motility) (bull sperm [3]): does not compromise sperm viability
- separation of Y- and X-bearing sperm by flow cytometry (bull sperm [4]; stained 18° C. o/n, 0 hr incubation @ RT): no separation
- separation of Y- and X-bearing sperm by flow cytometry (bull sperm [4]; stained 18° C. o/n, 1.5 hr incubation @ RT): no separation
- separation of Y- and X-bearing sperm by flow cytometry (bull sperm [4]; stained 18° C. o/n, 5.0 hr incubation @ RT): no separation
- separation of Y- and X-bearing sperm by flow cytometry (bull sperm [4]; stained 20° C. o/n, 0 hr incubation @ RT): no separation
- separation of Y- and X-bearing sperm by flow cytometry (bull sperm [4]; stained 20° C. o/n, 1.5 hr incubation @ RT): no separation
- separation of Y- and X-bearing sperm by flow cytometry (bull sperm [4]; stained 20° C. o/n, 5.0 hr incubation @ RT): no separation
- separation of Y- and X-bearing sperm by flow cytometry (bull sperm [4]; stained 22° C. o/n, 0 hr incubation @ RT): no separation
- quantity remaining in solution (solubility) ([5]; HEPES Buffer pH 6.85): 79 µM
- quantity remaining in solution (solubility) ([5]; HEPES Buffer pH 7.02): 73 µM
- quantity remaining in solution (solubility) ([5]; HEPES Buffer pH 7.23): 27 µM
- quantity remaining in solution (solubility) ([5]; HEPES Buffer pH 7.36): 23 µM
- quantity remaining in solution (solubility) ([5]; HEPES Buffer pH 7.52): 36 µM
- quantity remaining in solution (solubility) ([5]; TES Buffer pH 6.85): 79 µM
- quantity remaining in solution (solubility) ([5]; TES Buffer pH 6.98): 80 µM
- quantity remaining in solution (solubility) ([5]; TES Buffer pH 7.19): 78 µM
- quantity remaining in solution (solubility) ([5]; TES Buffer pH 7.34): 75 µM
- quantity remaining in solution (solubility) ([5]; TES Buffer pH 7.54): 57 µM
- quantity remaining in solution (solubility) ([5]; Tris Buffer pH 6.76): 34 µM
- quantity remaining in solution (solubility) ([5]; Tris Buffer pH 6.95): 42 µM
- quantity remaining in solution (solubility) ([5]; Tris Buffer pH 7.15): 49 µM
- quantity remaining in solution (solubility) ([5]; Tris Buffer pH 7.36): 22 µM
- quantity remaining in solution (solubility) ([5]; Tris Buffer pH 7.53): 15 µM
